Experiment [1] concerns BJ. As to the kind of experiment: BJ-TERT-LT-ST fibroblast viability loss – cell-based, RAS-independent, luminescence, dose response (AID 1935).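 Also: BJ fibroblasts immortalized with TERT plus LT and ST oncogenes.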 It counts as functional. The following applies: Homo sapiens.
Experiment [2] deals with BJ. As to the kind of experiment: cells. Format: functional, cell-based. The following applies: Homo sapiens.
Experiment [3] concerns the target T1, Replicative DNA helicase DnaB (Mycobacterium tuberculosis, UniProt P9WMR3).
T1 sequence (P9WMR3 whole entry): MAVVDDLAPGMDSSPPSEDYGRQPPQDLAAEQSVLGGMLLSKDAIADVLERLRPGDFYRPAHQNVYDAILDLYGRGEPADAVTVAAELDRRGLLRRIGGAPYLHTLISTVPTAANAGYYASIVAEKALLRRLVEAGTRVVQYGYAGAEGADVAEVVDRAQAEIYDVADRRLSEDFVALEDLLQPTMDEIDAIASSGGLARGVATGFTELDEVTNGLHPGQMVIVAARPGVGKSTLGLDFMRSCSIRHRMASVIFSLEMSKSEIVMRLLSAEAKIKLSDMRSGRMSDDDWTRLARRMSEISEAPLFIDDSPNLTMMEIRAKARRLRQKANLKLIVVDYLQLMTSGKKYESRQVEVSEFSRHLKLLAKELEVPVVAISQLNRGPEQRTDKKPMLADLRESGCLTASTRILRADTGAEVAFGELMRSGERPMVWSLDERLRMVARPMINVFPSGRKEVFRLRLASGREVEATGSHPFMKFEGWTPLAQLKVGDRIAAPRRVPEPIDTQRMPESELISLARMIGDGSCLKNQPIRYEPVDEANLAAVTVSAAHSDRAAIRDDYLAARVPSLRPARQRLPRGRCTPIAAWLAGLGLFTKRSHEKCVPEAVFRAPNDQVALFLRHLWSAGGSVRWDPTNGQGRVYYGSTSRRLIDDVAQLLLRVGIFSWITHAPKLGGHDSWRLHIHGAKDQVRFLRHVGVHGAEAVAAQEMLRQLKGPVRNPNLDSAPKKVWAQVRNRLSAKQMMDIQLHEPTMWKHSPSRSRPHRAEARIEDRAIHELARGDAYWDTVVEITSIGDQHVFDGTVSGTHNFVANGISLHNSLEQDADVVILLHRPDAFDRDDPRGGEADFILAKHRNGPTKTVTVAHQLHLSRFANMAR
As to the kind of experiment: DnaB intein splicing inhibitors, dose response, biochemical, cell-free fluorescence (AID 449749). Format: functional.

Experiment [4] is described as follows: luciferase reporter signal suppression in cells – H4 neuroglioma cells, luminescence, dose response (AID 1990). Format: functional, cell-based.
Experiment [5] relates to BJ. In words: BJ-TERT fibroblast viability loss – cell-based, RAS-independent, luminescence, dose response (AID 1933). The following applies: Homo sapiens. It counts as functional.
The nature of experiment [6]: DRD fibroblast viability loss – cell-based, non-viral oncogenic, luminescence, dose response (AID 1934). Format: functional. The following applies: Homo sapiens.
The nature of experiment [7]: Luminescence Cell-Based Dose Response HTS to Identify Inhibitors of 5'UTR Stem-Loop Driven Prion Protein mRNA Translation in H4 Neuroglioblastoma Cells. [Related pubchem assays: 1827 (Project Summary), 1813 (Primary HTS)]. It counts as functional.
Experiment [8] deals with T2, Apoptotic protease-activating factor 1 (Homo sapiens, UniProt O14727).
T2 sequence (O14727 whole entry): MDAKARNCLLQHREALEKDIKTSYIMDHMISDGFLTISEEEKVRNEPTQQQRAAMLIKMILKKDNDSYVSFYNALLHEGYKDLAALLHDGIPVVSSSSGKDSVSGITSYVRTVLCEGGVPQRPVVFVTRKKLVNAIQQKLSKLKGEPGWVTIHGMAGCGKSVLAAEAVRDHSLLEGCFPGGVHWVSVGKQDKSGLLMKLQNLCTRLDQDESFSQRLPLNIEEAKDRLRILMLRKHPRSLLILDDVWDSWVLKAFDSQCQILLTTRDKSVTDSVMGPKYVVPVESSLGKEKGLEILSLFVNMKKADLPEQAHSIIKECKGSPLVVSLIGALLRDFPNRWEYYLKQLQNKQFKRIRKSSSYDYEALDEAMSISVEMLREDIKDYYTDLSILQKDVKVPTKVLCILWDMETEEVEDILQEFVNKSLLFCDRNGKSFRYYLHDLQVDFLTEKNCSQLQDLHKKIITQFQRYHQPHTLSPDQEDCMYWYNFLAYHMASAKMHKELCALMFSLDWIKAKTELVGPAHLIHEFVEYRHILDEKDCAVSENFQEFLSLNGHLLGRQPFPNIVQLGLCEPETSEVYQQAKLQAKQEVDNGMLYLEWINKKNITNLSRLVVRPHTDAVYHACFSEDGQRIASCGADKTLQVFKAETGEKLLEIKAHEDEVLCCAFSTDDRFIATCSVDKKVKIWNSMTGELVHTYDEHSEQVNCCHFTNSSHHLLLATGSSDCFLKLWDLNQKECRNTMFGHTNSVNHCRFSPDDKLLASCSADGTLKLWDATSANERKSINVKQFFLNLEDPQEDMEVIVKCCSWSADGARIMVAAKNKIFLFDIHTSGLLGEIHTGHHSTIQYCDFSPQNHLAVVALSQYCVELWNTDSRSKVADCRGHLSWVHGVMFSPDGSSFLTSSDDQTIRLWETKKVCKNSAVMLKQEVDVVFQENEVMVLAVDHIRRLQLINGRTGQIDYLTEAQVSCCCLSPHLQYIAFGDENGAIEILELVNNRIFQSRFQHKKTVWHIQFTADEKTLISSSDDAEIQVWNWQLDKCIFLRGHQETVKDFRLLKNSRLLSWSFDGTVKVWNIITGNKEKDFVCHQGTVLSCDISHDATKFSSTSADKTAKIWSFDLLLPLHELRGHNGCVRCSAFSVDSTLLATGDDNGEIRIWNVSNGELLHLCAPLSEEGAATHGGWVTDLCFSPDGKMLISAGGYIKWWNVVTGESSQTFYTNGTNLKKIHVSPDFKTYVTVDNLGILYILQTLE
Format: functional.

Another experiment deals with INS1. In words: INS-1E survival protection against cytokine death – cell-based, luminescence, retest, dose response (AID 449756).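 Also: cell death triggered by IL-1 beta plus TNF-alpha plus IFN-gamma mixture; protective hits raise ATP signal compared with cytokine alone wells.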 The following applies: Rattus norvegicus. Format: functional.
The target of experiment [9] is Mitochondrial peptide methionine sulfoxide reductase (Bos taurus, UniProt P54149). It counts as functional.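 Also: absorbance read-out, biochemical high-throughput dose-response screen for MsrA inhibitors, confirmatory; recombinant bovine MsrA coupled to E. coli TrxB with NADPH and selenocystamine; potency is for inhibitors of MsrA activity on DMSO substrate.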
The nature of experiment [10]: Intein inhibitors as potential Tuberculosis drugs, a cytotoxicity screen. [Related pubchem assays (depositor defined):AID2221, AID2223, AID434968, AID435010, AID449749, AID449750, AID489010]. Format: functional.
Another experiment concerns the target T3, Protein RecA (Mycobacterium tuberculosis, UniProt P9WHJ3).
T3 sequence (P9WHJ3 whole entry): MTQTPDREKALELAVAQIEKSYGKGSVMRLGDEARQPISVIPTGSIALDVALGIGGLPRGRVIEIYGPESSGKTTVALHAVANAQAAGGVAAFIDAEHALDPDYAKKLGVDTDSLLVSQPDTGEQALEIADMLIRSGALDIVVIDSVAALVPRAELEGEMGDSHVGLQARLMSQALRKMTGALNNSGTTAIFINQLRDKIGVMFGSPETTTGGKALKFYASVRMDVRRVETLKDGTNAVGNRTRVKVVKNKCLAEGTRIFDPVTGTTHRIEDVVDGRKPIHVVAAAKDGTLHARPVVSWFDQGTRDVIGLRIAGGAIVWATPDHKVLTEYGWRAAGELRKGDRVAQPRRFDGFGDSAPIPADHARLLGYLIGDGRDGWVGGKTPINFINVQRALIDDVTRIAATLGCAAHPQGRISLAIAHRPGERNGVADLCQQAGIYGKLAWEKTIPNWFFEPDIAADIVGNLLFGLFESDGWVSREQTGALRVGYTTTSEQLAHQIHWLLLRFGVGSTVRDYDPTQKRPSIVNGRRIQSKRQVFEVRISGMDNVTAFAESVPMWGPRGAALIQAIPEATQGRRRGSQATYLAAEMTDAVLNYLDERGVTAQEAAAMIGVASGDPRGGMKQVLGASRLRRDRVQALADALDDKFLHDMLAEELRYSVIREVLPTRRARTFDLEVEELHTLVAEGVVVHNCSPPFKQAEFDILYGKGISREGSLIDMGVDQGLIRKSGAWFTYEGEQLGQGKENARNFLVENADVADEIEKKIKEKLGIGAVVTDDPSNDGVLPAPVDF
As to the kind of experiment: Fluorescence Cell-Free Homogeneous Dose Retest to Identify Inhibitors of RecA-Intein Splicing Activity. [Related pubchem assays (depositor defined):AID2097, AID2223, AID489010, AID492950]. Format: functional.

Experiment [11] addresses Alkaline phosphatase, tissue-nonspecific isozyme (Homo sapiens, UniProt P05186). In words: potency against alkaline phosphatase TNAP – biochemical, luminescent, dose response, SAR follow-up (AID 1056).
For experiment [12], the target named is Alkaline phosphatase, placental type (Homo sapiens, UniProt P05187). In words: human placental alkaline phosphatase inhibition – biochemical, luminescence, confirmation (AID 1512). It counts as functional.
Another experiment relates to T-cell. In words: loss of vesicle association with mouse CD8+ T cells – mouse 2C CD8+ T cells, flow cytometry, dose response (AID 485284). Format: functional. A general note: Flow cytometry measures light scatter and fluorescence of single cells or particles in a stream.

SMILES strings stand for the structures. The source made the active and inactive calls.

Broadly, the EC50 is the concentration at which the effect is half-maximal. For orientation: AC50 means the midpoint of the concentration-response curve, whichever way the signal moves. What is called IC50 is the concentration that gives 50% inhibition. What is called CC50 is the concentration that lowers cell viability or growth by half.
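For CC50 in this document: cells exposed to compound for 72 hours before luminescence readout.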

Sequence of Alkaline phosphatase, placental type (P05187 whole entry): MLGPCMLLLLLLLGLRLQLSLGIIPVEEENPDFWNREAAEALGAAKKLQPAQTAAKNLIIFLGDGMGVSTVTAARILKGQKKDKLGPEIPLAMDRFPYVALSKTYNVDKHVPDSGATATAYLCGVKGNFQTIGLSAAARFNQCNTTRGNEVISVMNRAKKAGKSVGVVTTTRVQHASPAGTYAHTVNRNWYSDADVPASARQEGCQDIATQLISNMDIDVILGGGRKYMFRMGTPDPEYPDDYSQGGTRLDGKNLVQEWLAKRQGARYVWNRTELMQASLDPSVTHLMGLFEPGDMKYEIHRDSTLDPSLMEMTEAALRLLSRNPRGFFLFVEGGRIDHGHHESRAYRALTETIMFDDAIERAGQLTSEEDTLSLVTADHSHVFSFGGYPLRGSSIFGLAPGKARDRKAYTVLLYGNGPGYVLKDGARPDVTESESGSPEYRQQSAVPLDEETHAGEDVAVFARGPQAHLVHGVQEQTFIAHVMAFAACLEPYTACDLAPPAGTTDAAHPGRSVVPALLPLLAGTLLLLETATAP
Sequence of Alkaline phosphatase, tissue-nonspecific isozyme (P05186 whole entry): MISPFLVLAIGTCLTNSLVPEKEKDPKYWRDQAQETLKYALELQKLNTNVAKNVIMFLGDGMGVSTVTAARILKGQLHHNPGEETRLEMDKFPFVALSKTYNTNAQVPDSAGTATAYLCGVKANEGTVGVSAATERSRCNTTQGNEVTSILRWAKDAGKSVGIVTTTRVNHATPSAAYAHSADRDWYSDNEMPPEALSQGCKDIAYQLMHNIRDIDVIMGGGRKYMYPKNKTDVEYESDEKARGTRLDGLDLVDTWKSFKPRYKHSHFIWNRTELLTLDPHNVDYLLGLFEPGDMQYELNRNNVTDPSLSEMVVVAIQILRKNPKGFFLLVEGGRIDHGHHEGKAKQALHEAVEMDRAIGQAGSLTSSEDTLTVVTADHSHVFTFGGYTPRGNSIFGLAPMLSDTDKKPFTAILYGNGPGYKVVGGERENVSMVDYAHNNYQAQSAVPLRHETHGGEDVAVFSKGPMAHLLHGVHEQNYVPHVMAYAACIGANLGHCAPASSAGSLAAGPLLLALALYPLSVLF
Sequence of Mitochondrial peptide methionine sulfoxide reductase (P54149 whole entry): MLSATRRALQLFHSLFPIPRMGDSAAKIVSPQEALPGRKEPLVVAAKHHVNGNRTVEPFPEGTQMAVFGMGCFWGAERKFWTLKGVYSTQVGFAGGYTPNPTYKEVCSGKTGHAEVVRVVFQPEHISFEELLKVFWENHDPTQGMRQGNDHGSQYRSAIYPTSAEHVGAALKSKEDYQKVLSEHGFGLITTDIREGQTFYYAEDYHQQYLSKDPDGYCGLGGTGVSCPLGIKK

Consider `Cc1oc2c(c1C(=O)N1CCOCC1)C(=O)c1ccccc1C2=O`, for which the EC50 was > 75 µM (inconclusive) in the experiment with BJ [1]; 13.4 µM (active) with BJ [2]; 8.24 µM (active) in [4]; 11.8 µM (active) in the experiment with BJ [5]; 10.5 µM (active) in experiment [6]; 8.93 µM (active) in experiment [7]. The EC50 at Protein RecA is 0.506 µM (active). For the same compound, the results for the AC50 (in [3]; in the experiment on INS1) were 1.41 µM (active) and 2.45 µM (active), respectively. Further, the IC50 in experiment [8] was 13.9 µM (active); in experiment [9], 64.3 µM (inactive). Besides, in experiment [10], the CC50 was 6.26 µM (active).

With `O=C(CNc1ccncc1)c1ccc(O)c(O)c1`, the IC50 in experiment [11] and in experiment [12] was > 100 µM (inactive) each time.

Consider `CCOc1ccccc1NC(=O)c1ccc(F)c(S(=O)(=O)N2CCC3(CC2)OCCO3)c1`, for which the EC50 in the experiment with T-cell was 16.4 µM (active).

(Values after ChEMBL document CHEMBL1201862, “PubChem BioAssay data set” (2004).)
